Test results taken from the supplement of paper PMC12533247.

Legend:
[1] = tested on: HSV-1 K26-GFP infected primary human skin cells; test: % change of HSV-1 GFP signal vs untreated infected cells; higher = less antiviral inhibition; details: cell type: primary dermal fibroblasts, time (h post infection): 48
Method: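 2D primary donor-derived dermal fibroblasts infected with GFP-HSV-1 K26 at MOI 1, treated 1 h later with compound dilutions and read at 48 hpi on IncuCyte. GFP integrated intensity is normalised to mock-infected and untreated infected wells (% change; -100 = full inhibition).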

[2] = tested on: HSV-1 K26-GFP infected primary human skin cells; test: as above
Method: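 2D primary donor-derived keratinocytes (read at 20 hpi) and donor-matched dermal fibroblasts (read at 48 hpi) infected with GFP-HSV-1 K26 at MOI 1 and treated 1 h later with compound dilutions. IncuCyte GFP integrated intensity is normalised by subtracting mock-infected wells and dividing by untreated infected wells, shown as % change (-100 = full inhibition).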

Nc1nc2c(ncn2COCCO)c(=O)[nH]1 [Acyclovir]
% change of HSV-1 GFP signal [%], [1]
Details | 0.01 µM | 0.03 µM | 0.091 µM | 0.274 µM | 0.823 µM | 2.469 µM | 7.407 µM | 22.222 µM | 66.667 µM | 200 µM
donor: 3 | 11.2 | -4.39 | -24.2 | -53.8 | -81.8 | -96 | -98.87 | -99.69 | -99.875 | -99.88
donor: 4 | -5.12 | -10.6 | -29.8 | -54.4 | -78.2 | -94 | -98.8 | -99.862 | -99.93 | -99.998

% change of HSV-1 GFP signal [%], [2]
Details | 0.01 µM | 0.03 µM | 0.091 µM | 0.274 µM | 0.823 µM | 2.469 µM | 7.407 µM | 22.222 µM | 66.667 µM | 200 µM
cell type: primary dermal fibroblasts, donor: 5, time (h post infection): 48 | 8.25 | 5.48 | -8.89 | -35.4 | -64.4 | -91.6 | -98.36 | -99.642 | -99.73 | -99.952
cell type: primary keratinocytes, donor: 3, time (h post infection): 20 | 4.06 | 2.08 | 5.2 | 11.3 | 10.1 | 10.8 | 5.3 | -13.4 | -42.3 | -69.1
cell type: primary keratinocytes, donor: 4, time (h post infection): 20 | 3.4 | -0.143 | 2.05 | 3.28 | -0.371 | -2.35 | -4.48 | -27.5 | -53.6 | -80.5
cell type: primary keratinocytes, donor: 5, time (h post infection): 20 | 3.43 | 1.77 | 4.64 | 3.64 | 4.14 | 5.76 | -4.49 | -17.7 | -45.6 | -75.1
